Measurements published in patent US20110207759A1, “METHOD FOR TREATMENT OF ATHEROSCLEROTIC DISEASE” (priority 2010, published 2011).

Key:
[1] = system: statin-treated patients with atherosclerotic coronary or vascular disease or coronary risk equivalent; assay: Carotid B-mode ultrasound: change in carotid intima-media thickness (CIMT), ARBITER 6-HALTS trial; format: in vivo, human; settings: for Change in CIMT - Mean CIMT / Change in CIMT - Max CIMT / Change in mean CIMT / Change from baseline CIMT, maximal thickness / Change from baseline CIMT, mean thickness: mean ± SE; for Change in mean CIMT: LOCF; for Change from baseline CIMT, maximal thickness / Change from baseline CIMT, mean thickness: last observation carried forward, all subjects (ezetimibe n=161, niacin n=154)
Text: (§1) Endpoints: The predefined primary endpoint was the between-group difference in the change in mean CIMT after 14 months. Secondary endpoints included the change in lipid values, a composite endpoint consisting of major adverse cardiovascular events (coronary heart disease death, myocardial infarction, myocardial revascularization, admission to the hospital for an acute coronary syndrome), drug discontinuation due to adverse effects, and health-related quality of life (Schweikert et al., 2008). Clinical cardiovascular endpoints were adjudicated by consensus of two members of the data advisory committee blinded to treatment assignment.
Carotid B-mode Ultrasound: Carotid ultrasonography was performed using a Sonosite Micromax ultrasound system (Bothell, Wash.) equipped with a broadband linear array probe (13 MHz). Participants underwent 3 ultrasound examinations during the study at baseline, 8 and 14 months. Except for the initial 20 baseline examinations performed at the Washington Adventist site, a single sonographer performed all ultrasound examinations. Images were obtained of the far wall of the distal 1 centimeter of the right and left common carotid arteries in the anterior and lateral views. A total of eight images (2 complete sets of 4 separate images) were obtained with standardized ultrasound settings. Baseline CIMT images were used to localize the site of imaging in serial images. Digitized still images from an electrocardiographically-defined diastolic frame were quantitated off-line. A single observer unaware of treatment assignment and patient identification performed measurements of mean and maximal CIMT. Focal atherosclerotic plaque was excluded from the site of CIMT measurement. All measurements were performed in duplicate using an automated border detection algorithm. […] Reader drift was evaluated using a standard image set (10 CIMT images from different patients) which the sonographer serially quantified every 6 months.
Statistical analysis: The primary endpoint was the change in mean CIMT from baseline to 14 months between the niacin and ezetimibe treatment groups. […] Clinical and carotid imaging data were held in separate databases for the duration of the trial. Between-group data for continuous variables were assessed with a t-test for independent variables or a Mann-Whitney U test as appropriate. A chi-square test was used for categorical variables. Kaplan-Meier survival analysis was performed using the log rank test. All statistical analyses were performed using SPSS software (version 16, SPSS Inc., Chicago, Ill.). Values are reported as mean±standard deviation or standard error, and median (inter-quartile range) for non-normal distributions. A 2-sided P value of 0.05 was considered statistically significant.
Study design: The study design prespecified the performance of a blinded, interim analysis according to the conservative method of O'Brien and Fleming with an alpha spending function (O'Brien et al. 1979). This was conducted after 180 subjects (60% of the planned sample size) completed the study. An independent data advisory committee evaluated the endpoint data without knowledge of treatment assignment. No formal, a priori stopping boundaries were set for the trial.

[2] = system: statin-treated patients with atherosclerotic coronary or vascular disease or coronary risk equivalent; assay: Major adverse cardiovascular events (composite clinical endpoint); format: in vivo, human; settings: 14-month study
Text: as §1

[3] = system: statin-treated patients with atherosclerotic coronary or vascular disease or coronary risk equivalent
Text: as §1

[4] = system: statin-treated patients with atherosclerotic coronary or vascular disease or coronary risk equivalent; assay: Fasting plasma lipids, glucose and C-reactive protein during treatment; settings: for C-reactive protein / Triglycerides: median (inter-quartile range);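 on all read-outs here: plasma drawn after an overnight fast, LDL-C determined by direct assay and C-reactive protein by high-sensitivity immunoturbidimetry with monoclonal anti-CRP antibodies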
Procedure: Study population: This prospective, randomized, parallel group, open-label, blinded endpoint study was conducted at two centers, Walter Reed Army Medical Center, a university-affiliated, suburban, tertiary care military medical center, and the Washington Adventist Hospital, a private tertiary care hospital located in Takoma Park, Md. The institutional review boards of each facility approved the study, and all volunteers provided written, informed consent. Included subjects were men and women ≧30 years old with either known atherosclerotic coronary or vascular disease (N=279) or a coronary risk equivalent diagnosis including diabetes mellitus (N=38), a 10-year coronary heart disease Framingham risk score ≧20% (N=26), or a coronary calcium score above 200 or 400 (N=20) for women and men respectively.
Randomization: Three hundred sixty-three patients were enrolled in the trial. […] Randomization was performed using a computer-generated sequence of random numbers. There were no protocol-directed changes in statin medications during the study.
Cardiovascular risk variables: Following an overnight fast, laboratory measurements included plasma total cholesterol, LDL-C, HDL-C, triglycerides, C-reactive protein, liver-associated enzymes and glucose at baseline, 2, 8 and 14 months. LDL-C was measured using a direct assay. C-reactive protein was measured with a high-sensitivity, commercially available immunoturbidimetric assay, which uses monoclonal antibodies to CRP (Roche Cobas® Integra, Switzerland).

[5] = 14 months from baseline, completing subjects (ezetimibe n=111, niacin n=97), added to statin
[6] = 2 Months, 208 completers, added to statin, mean ± SD
[7] = 8 Months, 208 completers, added to statin, mean ± SD
[8] = 14 Months, 208 completers, added to statin, mean ± SD
[9] = baseline to 14 months, 208 completers, added to statin
[10] = study completion, n=315, mean ± SD
[11] = study completion, n=315, median (interquartile range)

Q: What does the source list for O=C1[C@H](CC[C@H](O)c2ccc(F)cc2)[C@@H](c2ccc(O)cc2)N1c1ccc(F)cc1 [Ezetimibe, ezetimibe]?
A: Change in CIMT ([1]; 8 and 14 months, 208 completers, added to statin): No net change; Change in CIMT - Mean CIMT ([1]; 8 months from baseline, 208 completers (ezetimibe N=111, niacin N=97), added to statin): 0.0014 ± 0.0020 mm; Change in CIMT - Max CIMT ([1]; 8 months from baseline, 208 completers, added to statin): −0.0028 ± 0.0031 mm; Change in CIMT - Max CIMT [1, 5]: −0.0009 ± 0.0039 mm; Change in CIMT - Mean CIMT [1, 5]: −0.0007 ± 0.0035 mm; Change in mean CIMT ([1]; Quartile 1 (lowest) of cumulative drug exposure (adherence × dose × treatment duration)): −0.0071 ± 0.0031 mm; Change in mean CIMT ([1]; Quartile 2 of cumulative drug exposure): −0.0051 ± 0.0036 mm; Change in mean CIMT ([1]; Quartile 3 of cumulative drug exposure): −0.0009 ± 0.0067 mm; Change in mean CIMT ([1]; Quartile 4 (highest) of cumulative drug exposure, 14 months): 0.0067 ± 0.0059 mm; Change in mean CIMT ([1]; Quartile 4 (highest) of cumulative drug exposure, 14 months, listed as ezetimibe): 0.0067±0.0059 mm; Effect of increased cumulative drug exposure on CIMT ([1]; exploratory analysis, quartiles of adherence × dose × duration): progression of CIMT; Change from baseline CIMT, maximal thickness [1]: −0.0005 ± 0.0029 mm; Change from baseline CIMT, mean thickness [1]: −0.0016 ± 0.0024 mm; Change from baseline CIMT, maximal thickness ([1]; listed as ezetimibe): −0.0005±0.0029 mm; Change from baseline CIMT, mean thickness ([1]; listed as ezetimibe): −0.0016±0.0024 mm; Incidence of major adverse cardiovascular events [2]: 5.8%; Cardiovascular death (number of events) ([2]; ezetimibe N=165, niacin N=160): 5; Coronary revascularization procedure (number of events) ([2]; ezetimibe N=165, niacin N=160): 3; Myocardial infarction (number of events) ([2]; ezetimibe N=165, niacin N=160): 3; Subjects experiencing a composite clinical cardiovascular endpoint (major adverse cardiovascular events) ([2]; ezetimibe N=165, niacin N=160): 9 subjects; Withdrawals with adverse drug effects cited as the reason ([3]; both, human, in vivo, 14 months): 3; Subjects who did not complete the study ([3]; in vivo): 16; Subjects who did not complete the study (percent) ([3]; in vivo): 9.1%; Withdrawals ([3]; in vivo): 9; Deaths ([3]; of 176 ezetimibe / of 187 niacin enrolled): 7; HDL-C [4, 6]: 42.2 ± 8.5 mg/dL; LDL-C [4, 6]: 60.1 ± 16.1 mg/dL; C-reactive protein ([4]; 2 Months, 208 completers): 1.2 (0.6-3.0) mg/L; Triglycerides ([4]; 2 Months, 208 completers): 100 (78-140) mg/dL; Total Cholesterol ([4]; 2 Months, 208 subjects who completed 14 month study, added to statin, mean ± SD): 120.2 ± 20.6 mg/dL; HDL-C [4, 7]: 41.1 ± 9.0 mg/dL; LDL-C [4, 7]: 61.6 ± 17.2 mg/dL; Total Cholesterol [4, 7]: 122.4 ± 21.5 mg/dL; C-reactive protein ([4]; 8 Months, 208 completers): 1.3 (0.6-2.9) mg/L; Triglycerides ([4]; 8 Months, 208 completers): 107 (78-153) mg/dL; HDL-C [4, 8]: 40.5 ± 7.9 mg/dL; LDL-C [4, 8]: 66.1 ± 18.8 mg/dL; Total Cholesterol [4, 8]: 127.8 ± 22.8 mg/dL; C-reactive protein ([4]; 14 Months, 208 completers): 0.6 (0.6-3.1) mg/L; Triglycerides ([4]; 14 Months, 208 completers): 113 (84-150) mg/dL; Change from baseline in LDL-C and triglycerides ([4]; 315 patients, baseline to final): Significant reductions; Final change in HDL-C [4, 9]: -2.8 ± 5.7 mg/dL; Final change in LDL-C [4, 9]: -17.6 ± 20.1 mg/dL; Total cholesterol, final values ([4]; study completion, n=315 (ezetimibe 161, niacin 154), last observation carried forward, mean ± SD): 127.5 ± 24.8 mg/dL; HDL-C, final values [4, 10]: 41.1 ± 8.5 mg/dL; LDL-C, final values [4, 10]: 65.5 ± 20.0 mg/dL; Triglycerides, final values [4, 11]: 111 (82-144) mg/dl; hsCRP, final values [4, 11]: 1.0 (0.5-2.9) mg/l
